The values below come from patent US12076409B2, “Polymer-drug conjugates for combination anticancer therapy” (priority 2015, dated 2024).

Where only a bound is given, the exact number is not on record here.

Test [1] relates to human breast cancer cell line BT-474. As to the kind of experiment: MTT cell viability and drug combination studies in BT-474 cells. The format is cell-based. To be noted: BT-474, 72 hours, read-out: D50 (concentration of drug required to inhibit 50% cell growth). How it is done: BT-474 or bEnd.3 cells were seeded in a 96-well cell culture plate at a density of 10,000 cells per well in a total volume of 100 μL/well and allowed to adhere overnight. Media was then replaced with fresh media containing drug(s). Drugs were first dissolved in DMSO, and then further diluted in full cell culture medium so as not to expose cells to more than 0.5 vol % DMSO. BT-474 cells were incubated with drug solutions for 72 hours, while bEnd.3 cells were exposed to drug solutions for 48 hours. […] To assess cell viability, the media was replaced with 0.5 mg/mL MTT in media and allowed to incubate for 4 hours. […] Formazan dye intensity was determined by absorbance measured at 570 nm in a Tecan Infinite M200 Pro plate reader (Männedorf, Switzerland). The fraction of inhibited cell growth was calculated by subtracting live cells in experimental wells from untreated control cells and normalizing against control cells. D50 refers to the concentration of drug required to inhibit 50% cell growth. Experimental cytotoxicity data were fitted to the median-effect model developed by Chou and Talalay to obtain in vitro cytotoxicity curves for each drug.

Test [2] relates to BT-474 cells. Kind of test: Annexin V/Sytox Green apoptosis assay (flow cytometry). It is filed as cell-based, human. To be noted: BT-474, 72 hours, single drug. The method, then:
Apoptosis assessment was made based on Annexin V and Sytox Green counterstaining. Studies followed the Life Technologies Apoptosis Assay protocol, with few modifications tailored to BT-474 cells. Briefly, cells were seeded at a concentration of 100×10^4 cells per 25 cm^2 cell culture flask in a total volume of 10 mL media, and allowed to adhere overnight. Media was then decanted and replaced with fresh media containing drug(s). Drugs were first dissolved in DMSO and further diluted in media such that cells were not exposed to more than 0.2 vol % DMSO. Cells were incubated in the presence of drug(s) for 72 hours. After drug exposure, cells were harvested at a concentration of 1×10^6 cells/mL in Annexin V binding buffer, and 200 μL of each sample were incubated with 5 μL of Annexin V-647 and 1 μL of 1 μM Sytox Green. After 15 minutes of dye incubation, cells were diluted 5× in ice cold Annexin V Binding Buffer, and immediately analyzed via flow cytometry in a Becton Dickinson FACSAria cell sorter (Franklin Lakes, NJ, USA). To quantify Annexin V-647 and Sytox Green fluorescence, a 633 nm laser with 660 PMT and a 488 nm laser with 530 PMT, respectively, were utilized. […]
Scatter plots obtained from flow cytometry of AnnexinV/Sytox Green counterstained cells were analyzed. These plots were utilized to quantify early apoptotic and late apoptotic/necrotic populations in FIG. 2. […]
(In general: In flow cytometry, cells or beads pass a laser one at a time.)

The subject of test [3] is small cell lung cancer. Particulars: patients with small cell lung cancer; cited from earlier work.
Test [4] deals with BT-474 cells. Kind of test: Internalization studies by confocal laser scanning microscopy. The format is cell-based, human. Particulars: BT-474, 24 hrs. The method, then: To assess the effect of HA-conjugation on the internalization of CPT or DOX in BT-474 cells, confocal laser scanning microscopy was utilized. Cells were seeded at a density of 80,000 cells per 300 μL media in an 8-well chambered borosilicate coverglass (Nunc Lab-Tek), and were allowed to adhere overnight. Cells were exposed to the same drug concentration, the free drug D50, of either the free drug solution or the HA-conjugate form for 24 hrs at 37° C. and 5% CO2. Post-drug incubation, cells were washed twice with warmed PBS (pH 7.4), followed by staining with nuclear dyes at 37° C., 5% CO2. In the case of DOX-exposed cells, Hoechst nuclear dye was utilized at a concentration of 25 μg/mL for 30 minutes. For CPT-exposed cells, to avoid overlap fluorescence between CPT and nuclear marker, DRAQ5 was used to stain nuclei at a concentration of 5 μM in media for 60 minutes. Cells were washed twice more in warm PBS and finally suspended in media immediately prior to imaging. All cells were imaged live with an Olympus Fluoview 1000 spectral confocal equipped with a 60× silicon oil objective and a 37° C. temperature-controlled imaging chamber. […] Z-stacks of 10 μm were captured and subsequently analyzed with ImageJ 1.47h software (NIH). Each z-stack was collapsed into an averaged image, and fluorescence intensity was reported as the raw integrated density divided by number of cells. […]

Turning to `CC[C@@]1(O)C(=O)OCc2c1cc1n(c2=O)Cc2cc3ccccc3nc2-1` [CPT, Camptothecin], the IC50 in test [1] worked out at 100 µM. Further, in test [2], the “percentage of apoptotic cells” value is reported as “low percentages of apoptotic cells”.

For the compound `COc1cccc2c1C(=O)c1c(O)c3c(c(O)c1C2=O)C[C@@](O)(C(=O)CO)C[C@@H]3O[C@H]1C[C@H](N)[C@H](O)[C@H](C)O1` [DOX, Doxorubicin], the overall response rate in test [3] is recorded as over 20%. For the same compound, the intracellular distribution result in test [4] was “more diffuse and co-localized with cell nuclei”.
